Format in all cases: cell-based
Assay [1] has as its system PC-9 (KRAS wild type human lung adenocarcinoma cell line). Put plainly: KRAS 3D-Cell Proliferation Assay, PC-9 (Example 503). The note with it: 168 h, PC-9 3D culture, 7 days, CellTiter-Glo 3D, read-out: Prolif PC9 3D ATP IC50. The method, then: Example 503: KRAS 3D-Cell Proliferation Assays. Cellular potencies of compounds are assessed by evaluating inhibition of proliferation in 3D cultures of homozygous mutant KRAS G12D human pancreatic cell lines (AsPC-1 and HPAC) as compared to a KRAS wild type human lung adenocarcinoma cell line (PC-9 and/or H1975). Cells are seeded into 384-well black round-bottom, ultra-low attachment assay plates in 50 uL cell growth medium (RPMI-1640 with 10% fetal bovine serum and 2 mM L-glutamine). After overnight incubation at 37° C. and 5% CO2, compounds solubilized in DMSO are added as dilution series to the wells in a total volume of 150 nL (0.3% DMSO final). The cells are incubated for 7 days at 37° C. and 5% CO2. Cell proliferation is quantitated by addition of 40 uL/well of CellTiter-GloÒ 3D (Promega), and the well contents are mixed 20× at high speed using liquid handling automation workstation (Bravo with 384-well head) and centrifuged at 1500 rpm for 2 minutes to eliminate bubbles. This reagent in combination with mechanical disruption releases the cellular ATP to promote activity in a luciferase-based enzyme/substrate chemiluminescent detection system. After a 30-minute incubation under ambient conditions with shaking and an additional 10 minutes without shaking, the luminescence is read on a plate reader (e.g., EnVision [PerkinElmer]). The results are normalized to percent inhibition based on the following control samples: DMSO (0% inhibition) and 1 μM staurosporine (100% inhibition). The normalized luminescence results are plotted against compound concentration, and the data are fit to a 4-parameter Hill equation to determine the IC50 values.
(In general: ATP-based viability assays read luminescence as a measure of living cells.)

Assay [2] has as its system HPAC (homozygous mutant KRAS G12D human pancreatic cell line). As to the kind of experiment: KRAS 3D-Cell Proliferation Assay, HPAC (Example 503). The note with it: Homo sapiens, HPAC, 168 h, HPAC 3D culture, 7 days, CellTiter-Glo 3D; read-out: Prolif HPAC 3D ATP IC50. The gist of the method: (§1)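 IC50 values derive from 4-parameter Hill fits of normalized luminescence, where DMSO sets 0% and 1 μM staurosporine 100% inhibition. 3D cultures in RPMI-1640 with 10% fetal bovine serum were exposed to compound for 7 days before CellTiter-Glo 3D lysis.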

The subject of assay [3] is AsPC-1 (homozygous mutant KRAS G12D human pancreatic cell line). Put plainly: KRAS 3D-Cell Proliferation Assay, AsPC-1 (Example 503). The note with it: Homo sapiens, ASPC1, 168 h, AsPC-1 3D culture, 7 days, CellTiter-Glo 3D; read-out: Prolif AsPC-1 3D ATP IC50. The gist of the method: as §1
Assay [4] concerns H1975 (KRAS wild type human lung adenocarcinoma cell line). Put plainly: KRAS 3D-Cell Proliferation Assay, H1975 (Example 503). The note with it: Homo sapiens, NCI-H1975, 168 h, H1975 3D culture, 7 days, CellTiter-Glo 3D; read-out: Prolif H1975 3D ATP IC50. In short, it runs like this: as §1

Each structure is given as a SMILES string.

Take `Cc1cc(N)nc(-c2nc3c4c(nc(OC[C@]56CCN5CC(F)(F)C6)nc4c2F)N2C[C@H]4CC[C@H](N4)[C@H]2[C@H](C)O3)c1C(F)(F)F` (single isomer, unassigned) [Compound 45]: in assay [1], the IC50 is ≥ 20000 nM.

On to `Cc1nc(N)cc(-c2nc3c4c(nc(OC[C@@]56CCCN5CC5(CC5(F)F)C6)nc4c2F)N2C[C@H]4CC[C@H](N4)[C@H]2[C@H](C)O3)c1C(F)(F)F` (stereo partly drawn) [Compound 216, 4-((5S,5aS,6S,9R)-12-(((7a′S)-2,2-Difluorodihydro-1′,3′H-spiro[cyclopropane-1,2′-pyrrolizin]-7a′(5′H)-yl)methoxy)-1-fluoro-5-methyl-5a,6,7,8,9,10-hexahydro-5H-4-oxa-3,10a,11,13,14-pentaaza[6,9]methanonaphtho[1,8-ab]heptalene-2-yl)-6-methyl-5-(trifluoromethyl)pyridin-2-amine], for which the IC50 is 0.893 nM in assay [2], 0.6 nM in assay [3] and 161 nM in assay [4].

`Cc1c(F)c(N)cc(-c2nc3c4c(nc(OC[C@@H]5[C@@H]6CCN5CCO6)nc4c2F)N2C[C@H]4CC[C@H](N4)[C@H]2[C@H](C)O3)c1C(F)(F)F` [Compound 136, 5-((5S,5aS,6S,9R)-12-(((5S,8R)-4-Oxa-1-azabicyclo[3.2.1]octan-8-yl)methoxy)-1-fluoro-5-methyl-5a,6,7,8,9,10-hexahydro-5H-4-oxa-3,10a,11,13,14-pentaaza-6,9-methanonaphtho[1,8-ab]heptalen-2-yl)-2-fluoro-3-methyl-4-(trifluoromethyl)aniline]: the figures for the IC50 in assay [2], in assay [3] and in assay [4] were 67.5 nM, 200 nM and 12300 nM, respectively.

Regarding `Cc1c(F)c(N)c(F)c(-c2nc3c4c(nc(OC[C@@H]5CC[C@H]6COCCN65)nc4c2F)N2C[C@H]4CC[C@H](N4)[C@H]2[C@H](C)O3)c1C(F)(F)F` [Compound 96, 2,6-Difluoro-3-((5S,5aS,6S,9R)-1-fluoro-12-(((6S,8aS)-hexahydro-1H-pyrrolo[2,1-c][1,4]oxazin-6-yl)methoxy)-5-methyl-5a,6,7,8,9,10-hexahydro-5H-4-oxa-3,10a,11,13,14-pentaaza-6,9-methanonaphtho[1,8-ab]heptalen-2-yl)-5-methyl-4-(trifluoromethyl)aniline], the IC50 in assay [2] turned out to be 3.69 nM; in assay [3], 5.8 nM; in assay [4], 982 nM.

Regarding `C[C@@H]1Oc2nc(-c3cc(N)c(F)c(Cl)c3CC(F)F)c(F)c3nc(OC[C@@]45CCCN4C[C@H](F)C5)nc(c23)N2C[C@H]3CC[C@H](N3)[C@@H]12` [Compound 186, 3-Chloro-4-(2,2-difluoroethyl)-2-fluoro-5-((5S,5aS,6S,9R)-1-fluoro-12-(((2R,7aS)-2-fluorotetrahydro-1H-pyrrolizin-7a(5H)-yl)methoxy)-5-methyl-5a,6,7,8,9,10-hexahydro-5H-4-oxa-3,10a,11,13,14-pentaaza-6,9-methanonaphtho[1,8-ab]heptalene-2-yl)aniline], the IC50 was determined as 2.58 nM in assay [2], 8.9 nM in assay [3] and 1090 nM in assay [4].

With `C[C@@H]1Oc2nc(-c3cc(N)c(F)c(Cl)c3C(F)(F)F)c(F)c3nc(OC[C@@]45CCCN4C[C@H](F)C5)nc(c23)N2C[C@H]3CC[C@H](N3)[C@@H]12` [Compound 104, 3-Chloro-2-fluoro-5-((5S,5aS,6S,9R)-1-fluoro-12-(((2R,7aS)-2-fluorotetrahydro-1H-pyrrolizin-7a(5H)-yl)methoxy)-5-methyl-5a,6,7,8,9,10-hexahydro-5H-4-oxa-3,10a,11,13,14-pentaaza-6,9-methanonaphtho[1,8-ab]heptalen-2-yl)-4-(trifluoromethyl)aniline], the concentration for half-maximal inhibition (IC50) in assay [2] came out at 0.65 nM; in assay [3] it was 1.4 nM; in assay [4] it was 221 nM.

Consider `Cc1c(F)c(N)c(F)c(-c2nc3c4c(nc(OC[C@@]56CCCN5CC5(CC5(F)F)C6)nc4c2F)N2C[C@H]4CC[C@H](N4)[C@H]2[C@H](C)O3)c1C(F)(F)F` (stereo partly drawn) [Compound 225, 3-((5S,5aS,6S,9R)-12-(((7′S)-2,2-Difluorodihydro-1′H,3′H-spiro[cyclopropane-1,2′-pyrrolizin]-7a′(5′H)-yl)methoxy)-1-fluoro-5-methyl-5a,6,7,8,9,10-hexahydro-5H-4-oxa-3,10a,11,13,14-pentaaza[6,9]methanonaphtho[1,8-ab]heptalene-2-yl)-2,6-difluoro-5-methyl-4-(trifluoromethyl)aniline], for which the IC50 in assay [2] came out at 1.19 nM; in assay [3] it was 2.9 nM; in assay [4], 561 nM.

As for `Cc1nc(N)cc(-c2nc3c4c(nc(OC[C@@H]5CC[C@H]6COCCN65)nc4c2F)N2C[C@H]4CC[C@H](N4)[C@H]2[C@H](C)O3)c1C(F)(F)F` [Compound 112, 4-((5S,5aS,6S,9R)-1-fluoro-12-(((6S,8aS)-hexahydro-1H-pyrrolo[2,1-c][1,4]oxazin-6-yl)methoxy)-5-methyl-5a,6,7,8,9,10-hexahydro-5H-4-oxa-3,10a,11,13,14-pentaaza-6,9-methanonaphtho[1,8-ab]heptalen-2-yl)-6-methyl-5-(trifluoromethyl)pyridin-2-amine], the IC50 in assay [2] came out at 7.59 nM; in assay [3], 31.6 nM; in assay [4], 1470 nM.

In the case of `Cc1c(F)c(N)cc(-c2nc3c4c(nc(OCC5(CN6CCOCC6)CC5)nc4c2F)N2C[C@H]4CC[C@H](N4)[C@H]2[C@H](C(F)(F)F)O3)c1C(F)(F)F` [Compound 249, 2-Fluoro-5-((5R,5aS,6S,9R)-1-fluoro-12-((1-(morpholinomethyl)cyclopropyl)methoxy)-5-(trifluoromethyl)-5a,6,7,8,9,10-hexahydro-5H-4-oxa-3,10a,11,13,14-pentaaza-6,9-methanonaphtho[1,8-ab]heptalene-2-yl)-3-methyl-4-(trifluoromethyl)aniline], the IC50 in assay [2] was 1.37 nM; in assay [3], 1.1 nM; in assay [4] it was 417 nM.

For `Cc1c(F)c(N)cc(-c2nc3c4c(nc(OC[C@@]56CCCN5C[C@H](F)C6)nc4c2F)N2C[C@H]4CC[C@H](N4)[C@@H]2C(C)O3)c1C(F)(F)F` (single isomer, unassigned) [237 (isomer 2)], the IC50 in assay [2] came to 3.63 nM; in assay [3], 200 nM; in assay [4], 1040 nM.

For the compound `Cc1nc(N)cc(-c2nc3c4c(nc(OC[C@@H]5CC[C@H]6COCCN65)nc4c2F)N2C[C@H]4CC[C@H](N4)[C@H]2[C@H](C(F)(F)F)O3)c1C(F)(F)F` [Compound 253, 4-((5R,5aS,6S,9R)-1-Fluoro-12-(((6S,8aS)-hexahydro-1H-pyrrolo[2,1-c][1,4]oxazin-6-yl)methoxy)-5-(trifluoromethyl)-5a,6,7,8,9,10-hexahydro-5H-4-oxa-3,10a,11,13,14-pentaaza-6,9-methanonaphtho[1,8-ab]heptalene-2-yl)-6-methyl-5-(trifluoromethyl)pyridin-2-amine], the figures for the IC50 in assay [2], in assay [3] and in assay [4] were 19.8 nM, 64.6 nM and 5080 nM, respectively.

Regarding `C[C@@H]1Oc2nc(-c3cc(N)c(F)c(F)c3CC(F)(F)F)c(F)c3nc(OC[C@@]45CCCN4C[C@H](F)C5)nc(c23)N2C[C@H]3CC[C@H](N3)[C@@H]12` [Compound 183, 2,3-Difluoro-5-((5S,5aS,6S,9R)-1-fluoro-12-(((2R,7aS)-2-fluorotetrahydro-1H-pyrrolizin-7a(5H)-yl)methoxy)-5-methyl-5a,6,7,8,9,10-hexahydro-5H-4-oxa-3,10a,11,13,14-pentaaza-6,9-methanonaphtho[1,8-ab]heptalene-2-yl)-4-(2,2,2-trifluoroethyl)aniline], the IC50 in assay [2] was found to be 2.32 nM; in assay [3] it was 4.2 nM; in assay [4], 852 nM.

For `Cc1c(F)c(N)cc(-c2nc3c4c(nc(OCC56C[C@@H](F)CN5C[C@H](F)C6)nc4c2F)N2C[C@H]4CC[C@H](N4)[C@H]2[C@H](C)O3)c1C(F)(F)F` [Compound 140, 5-((5S,5aS,6S,9R)-12-(((2R,6R)-2,6-Difluorotetrahydro-1H-pyrrolizin-7a(5H)-yl)methoxy)-1-fluoro-5-methyl-5a,6,7,8,9,10-hexahydro-5H-4-oxa-3,10a,11,13,14-pentaaza-6,9-methanonaphtho[1,8-ab]heptalen-2-yl)-2-fluoro-3-methyl-4-(trifluoromethyl)aniline], the IC50 in assay [2] is 2.53 nM; in assay [3], 4.4 nM; in assay [4], 2060 nM.

The term IC50 denotes the concentration that gives 50% inhibition.

The values are drawn from patent US12338256B2, “Aza-tetracyclic oxazepine compounds and uses thereof” (Genentech, Inc., priority 2022, dated 2025).
